The source of these data is US20100278897A1, “INTRAOCULAR BIOACTIVE AGENT DELIVERY SYSTEM WITH MOLECULAR PARTITIONING SYSTEM” (ALLERGAN, INC., priority 2009, published 2010).

The series is described as follows: Elimination of Compound A from the eye. The class given is in vivo. As to conditions: intraocular.

`Cc1ccoc1C(=O)Nc1cccc(C#Cc2cncc(C(=O)N=[S@](=O)(CCCN3CCN(CCOCCO)CC3)c3ccccc3)c2)c1` [Compound A]: the “half-life of elimination from the eye” value is “a few hours”.
